Reference: patent US11932649B1, “5-(3-substituted phenyl)-pyrimido[4,5-d]pyrimidine-2,4,7(1H,3H,8H)-trione derivatives as anticancer agents” (KING FAISAL UNIVERISTY, priority 2023, dated 2024)
Like-named read-outs stand apart in the source and are kept apart here.

How the values were obtained:
[1] = system: adeno carcinomic human alveolar basal epithelial cell line (A-549); assay: Anticancer activity against human alveolar basal epithelial cell line A-549; assay type: cell-based
[2] = system: human breast cancer cell line (MCF-7); assay: Anticancer activity against human breast cancer cell line MCF-7; assay type: cell-based

Compound	IC50 [1]	IC50 [2]	IC50 ([1]; A549)	IC50 ([2]; MCF7)	melting point
5-(3-Hydroxy-4-methoxyphenyl)-1,3-dimethylpyrimido[4,5-d]pyrimidine-2,4,7(1H,3H,8H)-trione [Compound 4d]	186 nM	10 nM			
O=c1nc(-c2cccc(OCc3ccccc3)c2)c2c(=O)[nH]c(=O)[nH]c2[nH]1 [Compound 4a, 5-(3-(Benzyloxy)phenyl)pyrimido[4,5-d]pyrimidine-2,4,7(1H,3H,8H)-trione]			518 nM	663 nM	186 to 188 °C
O=c1nc(-c2ccc(OCc3ccccc3)cc2)c2c(=O)[nH]c(=O)[nH]c2[nH]1 [Compound 4b, 5-(4-(Benzyloxy)phenyl)pyrimido[4,5-d]pyrimidine-2,4,7(1H,3H,8H)-trione]			82 nM	38 nM	142 to 144 °C
COc1ccc(-c2nc(=O)[nH]c3[nH]c(=O)[nH]c(=O)c23)cc1O [Compound 4c, 5-(3-Hydroxy-4-methoxyphenyl)pyrimido[4,5-d]pyrimidine-2,4,7(1H,3H,8H)-trione]			461 nM	295 nM	272 to 274 °C
